# Experimental data from US20200131669A1, “CYCLIC PEPTIDE COMPOUND HAVING HIGH MEMBRANE PERMEABILITY, AND LIBRARY CONTAINING SAME” (Chugai Seiyaku Kabushiki Kaisha, priority 2017, published 2020).
# Starred links: 1 amine or outer side, 2 acyl side, 3 side chain; linkers in the order of their positions; H or OH if unused. Positions of bridges follow the written chain, without caps; N, C: chain ends. Non-standard residues stand in square brackets, D forms with d. Residues, ends and D or L forms follow the SMILES beside them. ξ: configuration not given here. *: point of attachment. Phe(4-CF3) = N[C@@H](Cc1ccc(C(F)(F)F)cc1)C(=O)O; NMePhe(3-Cl) = CN[C@@H](Cc1cccc(Cl)c1)C(=O)O; hPhe(3-Cl) = N[C@@H](CCc1cccc(Cl)c1)C(=O)O; Tyr(3-F) = N[C@@H](Cc1ccc(O)c(F)c1)C(=O)O; X5 = O=C(C(CCc1noc(=O)[nH]1)N[*:1])[*:2]; X9 = O=C(CN(CCOc1ccccc1)[*:1])[*:2]; X3 = O=C([C@H](CCCCO)N[*:1])[*:2]; Hyp = O=C(O)[C@@H]1C[C@@H](O)CN1; NMeF = CN[C@@H](Cc1ccccc1)C(=O)O; NMeGABA = CN(CCCC(=O)[*:2])[*:1]; NMeI = CC[C@H](C)[C@H](NC)C(=O)O; hPhe = N[C@@H](CCc1ccccc1)C(=O)O; ξThr(3R) = C[C@@H](O)C(N)C(=O)O; NMeD = CN[C@@H](CC(=O)O)C(=O)O; NMeL = CN[C@@H](CC(C)C)C(=O)O; NMeV = CN[C@H](C(=O)O)C(C)C; NMeAbu = CC[C@H](NC)C(=O)O; NMeA = CN[C@@H](C)C(=O)O; Piperidide = C1CCN(*)CC1; CH2CMe2OH = CC(C)(O)C*; Me2NCH2CH2 = CN(C)CC*; NBuGly = CCCCNCC(=O)O; NPrGly = CCCNCC(=O)O; Sar = CNCC(=O)O; tBu = CC(C)(C)*; CHF2 = FC(F)*; Propyl = CCC*
# Test: Caco-2 membrane permeability, improved method as used in the following Examples (96-well, 20 to 24 h preincubation)
# Type: in vitro ADME
# Conditions: human, Caco-2, Caco-2
# How it was run: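 Caco-2 monolayers were grown three weeks and preincubated 20–24 h at 37 °C with compound in DMEM+FaSSIF (1% DMSO) apically. The assay then used compound in FaSSIF/HBSS (1% DMSO, pH 6.0) apically and HBSS with 4% BSA (pH 7.4) basally. Basal samples were taken at 180 min for LC/MS, and Papp (cm/sec) was calculated.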
row,Structure (SMILES),Papp A→B at 180 min [×10⁻⁶ cm/s]
1,CC[C@H]1C(=O)N[C@@H]([C@@H](C)O)C(=O)N(C)CC(=O)N(C)[C@@H](Cc2ccccc2)C(=O)N(C)[C@@H](CC)C(=O)N[C@@H](COC(C)(C)C)C(=O)N(C)[C@@H](CC(C)C)C(=O)N[C@H](C(=O)N2CCCCC2)CC(=O)N(CCOc2ccccc2)CC(=O)N(C)[C@@H](CC(C)C)C(=O)N[C@@H](CC(C)C)C(=O)N1C [pd421] ([X9][NMeL]L[NMeAbu]T[Sar][NMeF][NMeAbu]S(tBu)[NMeL]D-Piperidide; lactam N-11),1.3
2,CCCN1CC(=O)N(C)[C@@H](CC(C)C)C(=O)N[C@H](C(=O)N2CCCCC2)CC(=O)N(C)[C@@H](C)C(=O)N[C@@H](CC(C)C)C(=O)N(C)[C@@H](CC(C)C)C(=O)N(C)[C@@H](Cc2ccccc2)C(=O)N[C@@H](COCC(C)(C)O)C(=O)N(C)[C@@H](Cc2ccccc2)C(=O)N(C)[C@@H]([C@@H](C)CC)C(=O)N[C@@H]([C@@H](C)O)C1=O [pd429] ([NMeA]L[NMeL][NMeF]S(CH2CMe2OH)[NMeF][NMeI]T[NPrGly][NMeL]D-Piperidide; lactam N-11),3.3
3,CCO[C@@H]1C[C@H]2C(=O)N(C)[C@@H](CC(C)C)C(=O)N[C@@H](COC(C)(C)C)C(=O)N3CCC[C@H]3C(=O)N[C@@H]([C@@H](C)O)C(=O)N(C)[C@@H](CC(C)C)C(=O)N(C)[C@@H](CC(C)C)C(=O)N(C)[C@@H](CC(C)C)C(=O)N[C@H](C(=O)N3CCCCC3)CC(=O)N[C@H](CC(C)C)C(=O)N(C)[C@@H]([C@@H](C)CC)C(=O)N2C1 [pd384] ([dL][NMeI][Hyp](Et)[NMeL]S(tBu)PT[NMeL][NMeL][NMeL]D-Piperidide; lactam N-11),3.3
4,CCCOC[C@@H]1NC(=O)[C@H](CC(C)C)N(C)C(=O)CN(C)C(=O)[C@H]([C@@H](C)O)NC(=O)[C@H](CC(C)C)N(C)C(=O)[C@H](CC(C)C)NC(=O)[C@H](Cc2ccccc2)N(C)C(=O)[C@@H](C(C)C)NC(=O)C[C@@H](C(=O)N2CCCCC2)NC(=O)[C@H](CC(C)C)N(C)C(=O)[C@H](Cc2ccccc2)N(C)C1=O [pd325] ([dV][NMeF]L[NMeL]T[Sar][NMeL]S(Propyl)[NMeF][NMeL]D-Piperidide; lactam N-11),2.2
5,CC(C)C[C@H]1C(=O)N[C@@H](CCc2cccc(Cl)c2)C(=O)N(C)[C@@H](CC(C)C)C(=O)N[C@@H]([C@@H](C)O)C(=O)N(C)CC(=O)N(C)[C@@H](Cc2ccccc2)C(=O)N(C)[C@@H](CC(C)C)C(=O)N[C@@H](COC(C)(C)C)C(=O)N(C)[C@@H](C(C)C)C(=O)N[C@H](C(=O)N2CCCCC2)CC(=O)N(C)CC(=O)N1C [pd357] ([Sar][NMeL][hPhe(3-Cl)][NMeL]T[Sar][NMeF][NMeL]S(tBu)[NMeV]D-Piperidide; lactam N-11),1.3
6,CC(C)C[C@@H]1NC(=O)[C@H](Cc2ccccc2)N(C)C(=O)[C@@H](C(C)C)NC(=O)C[C@@H](C(=O)N2CCCCC2)NC(=O)[C@H](CC(C)C)N(C)C(=O)[C@H](Cc2cccc(Cl)c2)N(C)C(=O)[C@H](COCC(C)(C)O)NC(=O)[C@H](CC(C)C)N(C)C(=O)CN(C)C(=O)[C@H]([C@@H](C)O)NC(=O)[C@H](CC(C)C)N(C)C1=O [pd427] ([dV][NMeF]L[NMeL]T[Sar][NMeL]S(CH2CMe2OH)[NMePhe(3-Cl)][NMeL]D-Piperidide; lactam N-11),1.3
7,CCO[C@@H]1C[C@H]2C(=O)N(C)[C@@H](C(C)C)C(=O)N[C@@H]([C@@H](C)O)C(=O)N(C)[C@@H](Cc3ccccc3)C(=O)N[C@@H](Cc3ccccc3)C(=O)N(C)[C@@H](CC(C)C)C(=O)N(C)[C@H](C(=O)N3CCCCC3)CC(=O)N3CCC[C@H]3C(=O)N(C)[C@@H](C(C)C)C(=O)N[C@@H](COC(C)(C)C)C(=O)N(C)[C@@H](CC(C)C)C(=O)N2C1 [pd376] (P[NMeV]S(tBu)[NMeL][Hyp](Et)[NMeV]T[NMeF]F[NMeL][NMeD]-Piperidide; lactam N-11),2.4
8,CC(C)C[C@H]1C(=O)N[C@H](C(=O)N2CCCCC2)CC(=O)N(C)[C@@H](C)C(=O)N[C@@H](C(C)C)C(=O)N(C)[C@@H](CC(C)C)C(=O)N(C)[C@@H](Cc2ccccc2)C(=O)N[C@@H](C(C)C)C(=O)N(C)[C@@H](Cc2ccccc2)C(=O)N(C)[C@@H](CC(C)C)C(=O)N[C@@H](CCCCO)C(=O)N(C)CC(=O)N1C [pd448] ([NMeA]V[NMeL][NMeF]V[NMeF][NMeL][X3][Sar][NMeL]D-Piperidide; lactam N-11),1.3
9,CC(C)C[C@H]1C(=O)N[C@@H](Cc2ccc(OC(F)F)cc2)C(=O)N(C)[C@@H](CC(C)C)C(=O)N(C)[C@@H](Cc2ccccc2)C(=O)N[C@@H](COC(C)(C)C)C(=O)N(C)[C@@H](CC(C)C)C(=O)NC([C@@H](C)O)C(=O)N(C)[C@@H](C)C(=O)N(C)[C@@H](CC(C)C)C(=O)N[C@@H](C(=O)N2CCCCC2)CC(=O)N(C)CCCC(=O)N1C (stereo partly drawn) [pd478] ([NMeGABA][NMeL]Y(CHF2)[NMeL][NMeF]S(tBu)[NMeL][ξThr(3R)][NMeA][NMeL][dD]-Piperidide; lactam N-11),1.3

# Same assay, conditions: human, Caco-2, Caco-2 (cm/sec)
row,Structure (SMILES),Papp A→B at 180 min [×10⁻⁶ cm/s]
1,CC(C)C[C@@H]1NC(=O)C[C@@H](C(=O)N2CCCCC2)NC(=O)[C@H](CC(C)C)N(C)C(=O)[C@H](CC(C)C)N(C)C(=O)[C@H](Cc2ccc(C(F)(F)F)cc2)NC(=O)[C@H](CC(C)C)N(C)C(=O)[C@H]([C@@H](C)O)NC(=O)[C@H](CC(C)C)N(C)C(=O)[C@H](C)N(C)C1=O [pd153] (L[NMeA][NMeL]T[NMeL][Phe(4-CF3)][NMeL][NMeL]D-Piperidide; lactam N-9),1.4
2,CC(C)C[C@@H]1NC(=O)[C@H](Cc2ccccc2)N(C)C(=O)[C@@H](C(C)C)NC(=O)C[C@@H](C(=O)N2CCCCC2)NC(=O)[C@H](CC(C)C)N(C)C(=O)[C@H](CC(C)C)N(C)C(=O)[C@H](Cc2ccc(O)c(F)c2)NC(=O)[C@H](CC(C)C)N(C)C(=O)CN(C)C(=O)[C@H]([C@@H](C)O)NC(=O)[C@H](CC(C)C)N(C)C1=O [pd128] ([dV][NMeF]L[NMeL]T[Sar][NMeL][Tyr(3-F)][NMeL][NMeL]D-Piperidide; lactam N-11),0.17
3,CC(C)C[C@H]1C(=O)N[C@@H](COC(C)(C)C)C(=O)N(C)[C@@H](Cc2ccccc2)C(=O)N(C)[C@@H](CC(C)C)C(=O)N[C@H](C(=O)N2CCCCC2)CC(=O)N[C@H](C(C)C)C(=O)N(C)[C@@H](Cc2ccccc2)C(=O)N[C@@H](C(C)C)C(=O)N(C)[C@@H](Cc2ccccc2)C(=O)N[C@@H]([C@@H](C)O)C(=O)N(C)CC(=O)N1C [pd210] ([dV][NMeF]V[NMeF]T[Sar][NMeL]S(tBu)[NMeF][NMeL]D-Piperidide; lactam N-11),1.6
4,CC(C)C[C@@H]1NC(=O)[C@H](CC(C)C)N(C)C(=O)[C@H](C)N(C)C(=O)[C@@H](C(C)C)NC(=O)C[C@@H](C(=O)N2CCCCC2)NC(=O)[C@H]([C@@H](C)O)NC(=O)[C@H](C)N(C)C(=O)[C@H](C)N(C)C(=O)[C@H](CC(C)C)N(C)C(=O)[C@H](Cc2ccc(O)c(F)c2)NC(=O)[C@H](Cc2ccccc2)N(C)C1=O [pd113] ([dV][NMeA][NMeL]L[NMeF][Tyr(3-F)][NMeL][NMeA][NMeA]TD-Piperidide; lactam N-11),0.029

# Same assay, conditions: human, Caco-2, improved method, preincubation 20 to 24 hours; Papp, sample at 180 minutes; read-out: Caco-2
row,Structure (SMILES),Papp A→B at 180 min [×10⁻⁶ cm/s]
1,CCCN1CC(=O)N[C@@H]([C@@H](C)O)C(=O)N[C@H](C(=O)N2CCCCC2)CC(=O)N(C)[C@@H](CC(C)C)C(=O)N[C@@H](Cc2ccc(C(F)(F)F)cc2)C(=O)N(C)[C@@H](CC(C)C)C(=O)N(C)[C@@H](CC(C)C)C(=O)N[C@@H](COC(C)(C)C)C1=O [pd147] ([NMeL][Phe(4-CF3)][NMeL][NMeL]S(tBu)[NPrGly]TD-Piperidide; lactam N-8),1.9

# Same assay, conditions: human; Papp, Caco-2 membrane permeability, improved method; read-out: Caco-2
row,Structure (SMILES),Papp A→B at 180 min [×10⁻⁶ cm/s]
1,CC(C)C[C@H]1C(=O)N[C@@H]([C@@H](C)O)C(=O)N(C)CC(=O)N(C)[C@@H](Cc2ccccc2)C(=O)N(C)[C@@H](CC(C)C)C(=O)N[C@@H](C(C)C)C(=O)N(C)[C@@H](CC(C)C)C(=O)N[C@H](C(=O)N2CCCCC2)CC(=O)N(C)CC(=O)N(C)[C@@H](C(C)C)C(=O)N[C@@H](CCc2ccccc2)C(=O)N1C [pd319] ([Sar][NMeV][hPhe][NMeL]T[Sar][NMeF][NMeL]V[NMeL]D-Piperidide; lactam N-11),2.2
2,CCCCN1CC(=O)N(C)[C@@H](CC(C)C)C(=O)N[C@H](C(=O)N2CCCCC2)CC(=O)N(C)[C@@H](CC)C(=O)N[C@@H](CC(C)C)C(=O)N(C)[C@@H](CC(C)C)C(=O)N(C)[C@@H](Cc2ccccc2)C(=O)NC(CCc2noc(=O)[nH]2)C(=O)N(C)[C@@H](CC(C)C)C(=O)N(C)[C@@H](CC(C)C)C(=O)NC([C@@H](C)O)C1=O (stereo partly drawn) [pd487] ([NMeAbu]L[NMeL][NMeF][X5][NMeL][NMeL][ξThr(3R)][NBuGly][NMeL]D-Piperidide; lactam N-11),2.2

# Same assay, conditions: human; Papp; Table 25, cyclic peptides containing Ser(Et-2-NMe2) or Gln(Ms), not in table head; read-out: Caco-2
row,Structure (SMILES),Papp A→B at 180 min [×10⁻⁶ cm/s]
1,CC(C)C[C@@H]1NC(=O)[C@H](Cc2ccccc2)N(C)C(=O)[C@H](Cc2ccccc2)N(C)C(=O)[C@H](COCCN(C)C)NC(=O)[C@H](CC(C)C)N(C)C(=O)CCCN(C)C(=O)C[C@@H](C(=O)N2CCCCC2)NC(=O)[C@H](CC(C)C)N(C)C(=O)[C@H](CC(C)C)N(C)C(=O)[C@H]([C@@H](C)O)NC(=O)[C@H](CC(C)C)N(C)C1=O [pd55] ([NMeGABA][NMeL]S(Me2NCH2CH2)[NMeF][NMeF]L[NMeL]T[NMeL][NMeL]D-Piperidide; lactam N-11),0.1
